# Data reported in patent publication US20250041624A1, “METHOD FOR ENHANCING ACTIVITY OF PHOTOSENSITIZER BY MAGNETIC FIELD” (PEKING UNIVERSITY, priority 2021, published 2025).
# Test: Reaction rate of fluorescent probe SOSG with 1O2 generated by photosensitizer under light and magnetic field
# Assay type: physicochemical
# Conditions: Ce6 and SOSG 10 μmol/L in water, 640 nm LED 5 mW·cm−2
# Protocol: (1) The photosensitizer Rose Bengal (RB) (the purity >98%, available from Saen Chemical Technologies (Shanghai) Ltd. Co., branded as Energy Chemical) and singlet oxygen fluorescent probe (SOSG) are dissolved in water (SOSG available from ThermoFisher Scientific (China) Co., Ltd.). In the resulting solution, the photosensitizer and SOSG are both at a concentration of 10 μmol/L. In a magnetic field with certain strength, the solutions are exposed to a 561 nm LED lamp (light emitting diode) at a power of 5 mW·cm^−2 and tested for fluorescence spectra at 0, 15, 30, 45, 60, 90, 120 and 180 seconds of light exposure, respectively, resulting in emission intensity ([…]) versus time (t) curves. The above fluorescence spectroscopy test is performed at a magnetic field strength of 0, 10, 35, 85, 180, 300 mT, respectively (external magnetic field provided by a neodymium iron boron permanent magnet).
# (2) The photosensitizer chlorin e6 (Ce6, Chlorin e6) (available from Saen Chemical Technologies (Shanghai) Ltd. Co., branded as Energy Chemical) and singlet oxygen fluorescent probe (SOSG) are dissolved in water, both with a concentration of 10 μmol/L in the resulting solutions. In a magnetic field with certain strength, the solutions are exposed to a 640 nm LED lamp (light emitting diode) at a power of 5 mW·cm^−2 and tested for fluorescence spectra at 0, 15, 30, 45, 60, 90, 120 and 180 seconds of light exposure, respectively, resulting in emission intensity ([…]) versus time (t) curves. The above fluorescence spectra are tested at a magnetic field strength of 0, 10, 30, 70, 150, 250 mT, respectively.
# The external magnetic field is supplied by Neodymium Iron Boron Permanent Magnet. Fluorescence spectra are tested using Edinburg FLS980 Steady State Transient Fluorescence Spectrometer with a detector of PMT R928 and a light source of 450 W ozone-free xenon lamp with excitation wavelength of λex=488 nm.
# Under irradiation conditions, photosensitizer is excited to produce singlet oxygen ^1O2, and fluorescent probe SOSG reacts with ^1O2 to give endoperoxide with green fluorescence emission characteristic, with emission wavelength of 525 nm under excitation wavelength conditions of 488 nm. The reaction has a reaction rate of r.
# In the present invention, through application of light and a magnetic field, the magnetic field effects (MFEs) is quantified by mfeR, the change rate of the reaction rate r, mfeR=(rB−r0)/r0×100%, where r0 is the reaction rate at a magnetic field strength of 0 mT and rB is the reaction rate at a magnetic field strength of B mT. Where the reaction rate (r) is proportional to the slope of the tangent of a curve (first derivative of the curve) of the emission intensity (I525 nm) versus time (t). Under magnetic field strengths of 0, 10, 35, 85, 180, 300 mT and from the time of starting to illuminate and place in magnetic field (the time recorded as 0), the first derivative of the I525 nm−t curve is 1, 1.05, 1.09, 0.99, 1.12, 1.14 (normalized).
substance,measurement,setting,value
chlorin e6 [Ce6],first derivative of I525 nm−t curve at time 0 (normalized),MF 0 mT,1
same,first derivative of I525 nm−t curve at time 0 (normalized),MF 10 mT,1.09
same,first derivative of I525 nm−t curve at time 0 (normalized),MF 30 mT,1.33
same,first derivative of I525 nm−t curve at time 0 (normalized),MF 70 mT,1.23
same,first derivative of I525 nm−t curve at time 0 (normalized),MF 150 mT,1.16
same,first derivative of I525 nm−t curve at time 0 (normalized),MF 250 mT,1.12
